The conditions of data set [1]: cited from earlier work.
For data set [2] the following is noted: cited from earlier work. The source holds these as a separate data set.
For data set [3] the following is noted: cited from earlier work. The source holds these as a separate data set.
The conditions of data set [4]: cited from earlier work. This is another data set of the same source.
A short description of data set [5]: behaviour of ketorolac tromethamine solutions outside pH 6.0-8.5. Type of data set: physicochemical. From the text:
In the present invention, a stable and injectable pharmaceutical composition which contains an acetic acid class of NSAID is described. The pH value of the injectable pharmaceutical composition is maintained at 6.0-8.5, preferably 6.9-7.9. When the pH values of the ketorolac tromethamine solutions are lower than 6, the NSAID precipitates from the solutions.
(4). Measure the pH of the solution in (3). If the pH is below 6.0, add an appropriate amount of the alkaline agent as described in (A) of the above “pH-adjusting agent” to the solution. If the pH is above 8.5, add an appropriate amount of the acidic agent as described in (B) of the above “pH-adjusting agent” to the solution. Cloudiness is observed when the pH of the solution is below 6. The solution will become clear after the pH adjustment to between 6.0-8.5.

For data set [6] the following is noted: white to off-white crystalline substance; cited from earlier work.
A further data set concerns plasma protein. The following applies: once in the circulation; cited from earlier work.

Where two headings read alike, the source gives them in different places.

As to `O=C(c1ccccc1)c1ccc2n1CCC2C(=O)O` (racemic) [ketorolac, (±)-5-benzoyl-2,3-dihydro-1H-pyrrolizine-1-carboxylic acid], in data set [1], the water solubility result is listed as “low”. Also, the “time at which serum concentration reaches a peak” value in data set [2] (route not given) was “about 2.9±1.8 minutes”.

Take `NC(CO)(CO)CO.O=C(c1ccccc1)c1ccc2n1CCC2C(=O)O` (stereo not shown) [ketorolac tromethamine]: the “onset of the anti-inflammatory, analgesic, and antipyretic effects” value in data set [3] (after the intramuscular administration) is 30 to 60 min. In addition, the “time to maximum effect” value in data set [3] (after the intravenous or intramuscular administrations) was 1 to 2 h. In data set [3] (in vivo), the “duration of therapeutic effects” value is 4 to 6 h. The water solubility result in data set [1] was “enhanced”. For the same compound, in data set [4], the pKa is reported as 3.5. Moreover, the behaviour of solution entry in data set [5] (pH higher than 8.5) was “color of the solutions changes”; in data set [5] (pH lower than 6), “precipitates”. In addition, in data set [6], the “behaviour under prolonged exposure to light” value is on record as “discolors”. The values for the terminal elimination half-life in data set [2] (geriatric patients) and in data set [2] (young adults) were 4.7 to 8.6 h and 3.8 to 6.3 h, respectively. Besides, the plasma protein bound in the data set on plasma protein is listed as 99%.

In general, pKa refers to the negative logarithm of the acid dissociation constant.

Values taken from patent US20030191187A1, “Injectable pharmaceutical composition containing a non-steroidal anti-inflammatory drug and method for preparing the same” (priority 2002, published 2003).
